Reference: patent US20240366611A1, “METHODS OF TREATING A DISEASE OR DISORDER” (Ascentage Pharma (Suzhou) Co., Ltd., priority 2021, published 2024)

System: HBG mRNA in human CD34+ HSC
Assay: HBG mRNA level in human CD34+ HSC (qRT-PCR)
Assay type: cell-based
Details: 7 days of treatment
Protocol: Human cord blood CD34+ hematopoietic stem cells (HSC) were first expanded in the expansion medium (StemSpan SFEM II+StemSpan CD34 Expansion Supplement) to achieve the desired number of cells, and then differentiated in differentiation medium (StemSpan SFEM II+StemSpan Erythroid Expansion Supplement (100×)) for three days without drug treatment. Various concentrations of Cpd. 73 were added on the fourth day of differentiation and further incubated with the cells for another 7 days. 33 mM Hydroxyurea was used as the control.
After 7 days of treatment, the cells were collected. Total RNA was isolated using Trizol LS reagent (Invitrogen-10296028) and 1 μg RNA of each sample was reverse transcribed into cDNA using High Capacity cDNA Reverse Transcription Kit (AB (Applied Biosystems)-4374966), according to the manufacturer's instructions. Quantitative RT-PCR (qRT-PCR) was performed using an Applied Biosystems QuantStudio 7 Flex system with the primer pairs shown as below: hHBG-mRNA-F1 (5′-[…]-3′) and hHBG-mRNA-R1 (5′-TCACTCAGCTGGGCAAAGG-3′). […] The HBG mRNA level were 1.09-, 2.49-, 7.84-, 9.69- and 12.2-folds of the vehicle group when the cells were treated with 0.01 μM, 0.03 μM, 0.1 μM, 0.3 μM and 1.0 μM Cpd. 73 respectively. […] 73 which increased HBG mRNA by 12.2 folds (p<0.0001, vs. vehicle). The HBG mRNA level of cells treated with 33 mM Hydroxyurea, an approved medicine for SCD, was 6.46-folds of the vehicle group.

## CC(C)N1Cc2cc(C(F)(F)F)ncc2-c2cnc(NCc3c(F)ccc4c3CCO4)n3cnc(c23)C1=O [Cpd. 73, 12-(((5-fluoro-2,3-dihydrobenzofuran-4-yl)methyl)amino)-4-isopropyl-7-(trifluoromethyl)-4,5-dihydro-3H-2,4,8,11,12a-pentaazabenzo[4,5]cycloocta[1,2,3-cd]inden-3-one]
0.01 μM
  HBG mRNA level, folds of the vehicle group: 1.09 folds
0.03 μM
  HBG mRNA level, folds of the vehicle group: 2.49 folds
0.1 μM
  HBG mRNA level, folds of the vehicle group: 7.84 folds
0.3 μM
  HBG mRNA level, folds of the vehicle group: 9.69 folds
1.0 μM, maximal effect, p<0.0001 vs vehicle
  HBG mRNA level, folds of the vehicle group: 12.2 folds
